Measurements: ChEMBL document CHEMBL4261569, “Identification of novel N-acetylcysteine derivatives for the treatment of hepatocellular injury” (Medchemcomm, 2017)
Active and inactive are the calls of the source. The calls are words filed in the database; no cut-off is given here.

What was measured:
L02 [1] = assay: Cytoprotection against H2O2 induced cytotoxicity in human LO2 cells assessed as increase in cell viability preincubated for 24 hrs followed by H2O2 addition measured after 6 hrs by CCK-8 assay; assay type: functional, cell-based
L02 [2] = assay: Cytoprotection against H2O2 induced cytotoxicity in human LO2 cells assessed as decrease in MDA level at 100 mmol after 15 mins by lipid oxidation assay; assay type: functional, cell-based
L02 [3] = assay: Cytoprotection against APAP induced cytotoxicity in human LO2 cells assessed as decrease in MDA level at 100 mmol after 15 mins by lipid oxidation assay; assay type: functional, cell-based
L02 [4] = assay: Cytoprotection against APAP induced cytotoxicity in human LO2 cells assessed as increase in cell viability preincubated for 24 hrs followed by […] hrs by CCK-8 assay; assay type: functional, cell-based
L02 [5] = assay: Cytotoxicity against human LO2 cells assessed as reduction in cell viability after 24 hrs by CCK-8 assay; assay type: cell-based; conditions: l02, 24 h
[6] = Oral bioavailability in human; assay type: ADME, organism-based; conditions: in vivo
[7] = Apparent permeability across apical to basolateral side in human Caco2 cells at 10 uM after 1.5 hrs by LC-MS/MS analysis; assay type: ADME, cell-based; conditions: Caco-2
[8] = Terminal half life in iv dosed human plasma; assay type: ADME, organism-based; conditions: read-out: beta t1/2 (converted)
[9] = Apparent permeability across basolateral to apical side in human Caco2 cells at 10 uM after 1.5 hrs by LC-MS/MS analysis; assay type: ADME, cell-based; conditions: Caco-2
[10] = Drug excretion in iv dosed human; assay type: ADME, organism-based; conditions: in vivo, read-out: Drug excretion
[11] = AUC in Sprague-Dawley rat at 10 mg/kg, iv or 20 mg/kg, po by LC-MS/MS analysis; assay type: ADME, organism-based; conditions: in vivo
[12] = Cmax in Sprague-Dawley rat at 10 mg/kg, iv or 20 mg/kg, po by LC-MS/MS analysis; assay type: ADME, organism-based; conditions: in vivo
[13] = Terminal half life in Sprague-Dawley rat at 20 mg/kg, po by LC-MS/MS analysis; assay type: ADME, organism-based; conditions: in vivo, read-out: beta t1/2 (converted)
[14] = Efflux ratio of apparent permeability across basolateral to apical side over apical to basolateral side in human Caco2 cells at 10 uM after 1.5 hrs by LC-MS/MS analysis; assay type: ADME, cell-based; conditions: Caco-2
[15] = Oral bioavailability in Sprague-Dawley rat at 20 mg/kg by LC-MS/MS analysis; assay type: ADME, organism-based; conditions: in vivo

Row | Structure (SMILES) | Activity (L02 [1]) | Activity (L02 [2]) | also measured
1 | CSC[C@H](NC(C)=O)C(=O)Nc1ccccc1 | Active | Active | Activity (L02 [3]): Active; Activity (L02 [4]): inactive
2 | CCC(=O)N[C@@H](CSC)C(=O)NC1CCCCC1 | Active | Active | Activity (L02 [3]): Active; Activity (L02 [4]): Active
3 | CNC(=O)[C@H](CSC)NC(=O)c1ccccc1 | Active | inactive | 
4 | CSC[C@H](NC(=O)c1ccc(F)cc1)C(=O)OC(C)(C)C | inactive |  | Activity (L02 [5]): Toxic
5 | CC(=O)N[C@@H](CS)C(=O)O [ACETYLCYSTEINE] |  | Active | bioavailability [6]: < 5%; Papp A→B at 1.5 h, 10 µM [7]: < 1.09 ×10⁻⁶ cm/s; half-life [8]: 5.6 h; Papp B→A at 1.5 h, 10 µM [9]: < 0.61 ×10⁻⁶ cm/s; Activity (L02 [3]): Active; dose excreted [10]: 30%
6 | CNC(=O)[C@H](CSC)NC(=O)C1CCCCC1 | Active | Active | 
7 | CSC[C@H](NC(C)=O)C(=O)NC1CCCCC1 | Active | Active | AUC [11]: 3080 ng·h/mL; Papp A→B at 1.5 h, 10 µM [7]: 19.7 ×10⁻⁶ cm/s; Papp B→A at 1.5 h, 10 µM [9]: 21.8 ×10⁻⁶ cm/s; Cmax [12]: 2140 ng/mL; half-life [13]: 5.62 h; efflux ratio at 1.5 h, 10 µM [14]: 1.11; bioavailability [15]: 52.8%; Activity (L02 [3]): Active; Activity (L02 [4]): Active
8 | CCC(=O)N[C@@H](CSC)C(=O)OC | inactive |  | 
9 | CCC(=O)N[C@@H](CSC)C(=O)NC | Active |  | 
10 | CSC[C@H](NC(=O)c1ccccc1)C(=O)O | Active | Active | 
11 | CCC(=O)N[C@@H](CSC)C(=O)OC(C)(C)C | inactive |  | Activity (L02 [5]): Toxic
12 | CSC[C@H](NC(=O)c1ccccc1)C(=O)Nc1ccccc1 | Active |  | 
13 | CSC[C@H](NC(=O)c1ccccc1)C(=O)NC1CCCCC1 | Active |  | 
14 | COC(=O)[C@H](CSC)NC(C)=O | inactive |  | 
15 | COC(=O)[C@H](CSC)NC(=O)C1CCCCC1 | inactive |  | 
16 | CSC[C@H](NC(=O)C1CCCCC1)C(=O)O | Active | Active | 
17 | CCC(=O)N[C@@H](CSC)C(=O)Nc1ccccc1 | Active |  | 
18 | CSC[C@H](NC(=O)c1ccc(F)cc1)C(=O)O | Active | Active | 
19 | COC(=O)[C@H](CSC)NC(=O)c1ccc(F)cc1 | inactive |  | 
20 | CSC[C@H](NC(C)=O)C(=O)O | Active | Active | 
21 | CSC[C@H](NC(C)=O)C(=O)OC(C)(C)C | inactive |  | Activity (L02 [5]): Toxic
22 | CSC[C@H](NC(=O)c1ccccc1)C(=O)OC(C)(C)C | inactive |  | Activity (L02 [5]): Toxic
23 | COC(=O)[C@H](CSC)NC(=O)c1ccccc1 | inactive |  | 
24 | CSC[C@H](NC(=O)C1CCCCC1)C(=O)OC(C)(C)C | inactive |  | Activity (L02 [5]): Toxic
25 | CCC(=O)N[C@@H](CSC)C(=O)O | Active | Active | 
